How the values were obtained:
[1] = target: Macrophage colony-stimulating factor 1 receptor (Homo sapiens) (UniProt P07333); settings: Compound concentration 1000.0 nM
[2] = target: Voltage-dependent N-type calcium channel subunit alpha-1B (Rattus norvegicus) (UniProt Q02294); assay: CA+/N/R Cerep selectivity data (BI); settings: Compound concentration 20.0 uM
[3] = target: Dual specificity mitogen-activated protein kinase kinase 1 (Homo sapiens) (UniProt Q02750); assay: MAP2K1 Invitrogen selectivity data (BI); settings: Compound concentration 3.0 uM
[4] = target: Protein kinase C alpha type (Homo sapiens) (UniProt P17252); assay: PRKCA Invitrogen selectivity data (BI); settings: Compound concentration 3.0 uM
[5] = target: Serine/threonine-protein kinase WNK2 (Homo sapiens) (UniProt Q9Y3S1); assay: WNK2 Invitrogen selectivity data (BI); settings: Compound concentration 3.0 uM
[6] = target: G protein-coupled receptor kinase 5 (Homo sapiens) (UniProt P34947); assay: GRK5 Invitrogen selectivity data (BI); settings: Compound concentration 3.0 uM
[7] = target: Mitogen-activated protein kinase kinase kinase 9 (Homo sapiens) (UniProt P80192); assay: MAP3K9 Invitrogen selectivity data (BI); settings: Compound concentration 3.0 uM
[8] = target: Phosphorylase b kinase gamma catalytic chain, skeletal muscle/heart isoform (Homo sapiens) (UniProt Q16816); assay: PHKG1 Invitrogen selectivity data (BI); settings: Compound concentration 3.0 uM
[9] = target: Peroxisome proliferator-activated receptor gamma (Homo sapiens) (UniProt P37231); assay: PPARG/H AG Cerep selectivity data (BI); settings: filed as agonist, Compound concentration 20.0 uM
[10] = tested on: T1, Receptor-type tyrosine-protein kinase FLT3 (Homo sapiens), P36888 [D835Y]; assay: FLT3 D835Y Invitrogen selectivity data (BI); settings: Compound concentration 3.0 uM
T1 sequence (whole entry): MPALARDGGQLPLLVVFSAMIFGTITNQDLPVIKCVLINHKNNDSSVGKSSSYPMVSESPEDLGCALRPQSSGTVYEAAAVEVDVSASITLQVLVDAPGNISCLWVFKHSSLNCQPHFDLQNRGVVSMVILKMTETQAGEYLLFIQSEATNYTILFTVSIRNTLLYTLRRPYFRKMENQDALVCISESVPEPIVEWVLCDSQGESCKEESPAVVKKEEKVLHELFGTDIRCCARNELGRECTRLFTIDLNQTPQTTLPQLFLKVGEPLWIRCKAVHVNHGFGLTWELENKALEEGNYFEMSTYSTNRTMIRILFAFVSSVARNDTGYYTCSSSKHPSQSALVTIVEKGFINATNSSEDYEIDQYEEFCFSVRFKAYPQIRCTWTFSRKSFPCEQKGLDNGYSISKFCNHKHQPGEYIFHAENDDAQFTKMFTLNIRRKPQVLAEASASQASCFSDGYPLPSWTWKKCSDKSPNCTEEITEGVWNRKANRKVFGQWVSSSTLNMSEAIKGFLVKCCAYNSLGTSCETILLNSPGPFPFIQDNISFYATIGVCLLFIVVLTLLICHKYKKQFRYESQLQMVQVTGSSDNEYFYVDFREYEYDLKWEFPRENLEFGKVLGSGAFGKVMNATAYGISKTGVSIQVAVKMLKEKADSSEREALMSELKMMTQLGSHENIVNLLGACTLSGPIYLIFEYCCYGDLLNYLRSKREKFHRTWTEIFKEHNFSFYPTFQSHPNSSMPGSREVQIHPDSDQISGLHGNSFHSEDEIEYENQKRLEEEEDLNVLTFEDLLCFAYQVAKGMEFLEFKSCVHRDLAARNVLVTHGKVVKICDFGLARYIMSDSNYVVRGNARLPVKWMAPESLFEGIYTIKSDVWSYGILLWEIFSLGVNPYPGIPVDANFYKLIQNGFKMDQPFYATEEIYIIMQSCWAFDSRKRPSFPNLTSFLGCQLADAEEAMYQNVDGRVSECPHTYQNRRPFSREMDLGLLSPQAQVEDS

[11] = tested on: Tyrosine-protein kinase ABL1 (Homo sapiens), P00519 [E255K]; assay: ABL1 E255K Invitrogen selectivity data (BI); settings: Compound concentration 3.0 uM
[12] = target: T2, Mitogen-activated protein kinase kinase kinase kinase 2 (Homo sapiens) (UniProt Q12851); assay: MAP4K2 Invitrogen selectivity data (BI); settings: Compound concentration 3.0 uM
T2 sequence (whole entry): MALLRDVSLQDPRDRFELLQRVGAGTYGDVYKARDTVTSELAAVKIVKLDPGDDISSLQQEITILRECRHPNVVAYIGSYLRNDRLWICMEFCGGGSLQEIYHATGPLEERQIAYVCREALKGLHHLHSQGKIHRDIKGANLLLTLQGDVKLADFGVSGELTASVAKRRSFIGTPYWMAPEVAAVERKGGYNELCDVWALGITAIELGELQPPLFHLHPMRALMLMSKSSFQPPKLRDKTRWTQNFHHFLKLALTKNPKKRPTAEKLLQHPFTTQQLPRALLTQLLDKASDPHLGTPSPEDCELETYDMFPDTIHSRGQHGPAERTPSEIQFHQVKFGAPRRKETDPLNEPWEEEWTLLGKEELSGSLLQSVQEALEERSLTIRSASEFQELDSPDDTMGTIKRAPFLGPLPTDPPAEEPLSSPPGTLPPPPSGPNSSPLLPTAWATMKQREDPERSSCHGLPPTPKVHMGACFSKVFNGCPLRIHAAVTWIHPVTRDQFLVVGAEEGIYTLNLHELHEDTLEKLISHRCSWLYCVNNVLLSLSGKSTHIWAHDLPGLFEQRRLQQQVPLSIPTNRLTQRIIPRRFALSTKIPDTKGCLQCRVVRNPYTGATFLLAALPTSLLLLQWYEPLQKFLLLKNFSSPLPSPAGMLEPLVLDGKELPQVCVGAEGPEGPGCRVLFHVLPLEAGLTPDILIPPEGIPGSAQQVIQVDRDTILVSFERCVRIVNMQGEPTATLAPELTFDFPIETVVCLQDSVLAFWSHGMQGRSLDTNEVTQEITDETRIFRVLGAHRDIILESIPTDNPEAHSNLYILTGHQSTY

[13] = target: Receptor-interacting serine/threonine-protein kinase 2 (Homo sapiens) (UniProt O43353); assay: RIPK2 Invitrogen selectivity data (BI); settings: Compound concentration 3.0 uM
[14] = target: Vascular endothelial growth factor receptor 1 (Homo sapiens) (UniProt P17948); assay: FLT-1(VEGFR1)_CE Cerep selectivity data (BI); settings: Compound concentration 20.0 uM
[15] = target: Vascular endothelial growth factor receptor 3 (Homo sapiens) (UniProt P35916); assay: FLT4 Invitrogen selectivity data (BI); settings: Compound concentration 3.0 uM
[16] = target: Guanylate cyclase soluble subunit alpha-1 (Bos taurus) (UniProt P19687); assay: GUACYCBASAL Cerep selectivity data (BI); settings: Homo sapiens; Compound concentration 20.0 uM
[17] = target: 72 kDa type IV collagenase (Homo sapiens) (UniProt P08253); assay: MMP-2 (H) Cerep selectivity data (BI); settings: Compound concentration 20.0 uM
[18] = target: Thyroid hormone receptor alpha (Rattus norvegicus) (UniProt P63059); assay: TRTH_AGON Cerep selectivity data (BI); settings: filed as agonist, Compound concentration 20.0 uM
[19] = target: Mitogen-activated protein kinase 3 (Homo sapiens) (UniProt P27361); assay: MAPK3 Invitrogen selectivity data (BI); settings: Compound concentration 3.0 uM

Sequence of Vascular endothelial growth factor receptor 3 (Homo sapiens) (P35916 whole entry): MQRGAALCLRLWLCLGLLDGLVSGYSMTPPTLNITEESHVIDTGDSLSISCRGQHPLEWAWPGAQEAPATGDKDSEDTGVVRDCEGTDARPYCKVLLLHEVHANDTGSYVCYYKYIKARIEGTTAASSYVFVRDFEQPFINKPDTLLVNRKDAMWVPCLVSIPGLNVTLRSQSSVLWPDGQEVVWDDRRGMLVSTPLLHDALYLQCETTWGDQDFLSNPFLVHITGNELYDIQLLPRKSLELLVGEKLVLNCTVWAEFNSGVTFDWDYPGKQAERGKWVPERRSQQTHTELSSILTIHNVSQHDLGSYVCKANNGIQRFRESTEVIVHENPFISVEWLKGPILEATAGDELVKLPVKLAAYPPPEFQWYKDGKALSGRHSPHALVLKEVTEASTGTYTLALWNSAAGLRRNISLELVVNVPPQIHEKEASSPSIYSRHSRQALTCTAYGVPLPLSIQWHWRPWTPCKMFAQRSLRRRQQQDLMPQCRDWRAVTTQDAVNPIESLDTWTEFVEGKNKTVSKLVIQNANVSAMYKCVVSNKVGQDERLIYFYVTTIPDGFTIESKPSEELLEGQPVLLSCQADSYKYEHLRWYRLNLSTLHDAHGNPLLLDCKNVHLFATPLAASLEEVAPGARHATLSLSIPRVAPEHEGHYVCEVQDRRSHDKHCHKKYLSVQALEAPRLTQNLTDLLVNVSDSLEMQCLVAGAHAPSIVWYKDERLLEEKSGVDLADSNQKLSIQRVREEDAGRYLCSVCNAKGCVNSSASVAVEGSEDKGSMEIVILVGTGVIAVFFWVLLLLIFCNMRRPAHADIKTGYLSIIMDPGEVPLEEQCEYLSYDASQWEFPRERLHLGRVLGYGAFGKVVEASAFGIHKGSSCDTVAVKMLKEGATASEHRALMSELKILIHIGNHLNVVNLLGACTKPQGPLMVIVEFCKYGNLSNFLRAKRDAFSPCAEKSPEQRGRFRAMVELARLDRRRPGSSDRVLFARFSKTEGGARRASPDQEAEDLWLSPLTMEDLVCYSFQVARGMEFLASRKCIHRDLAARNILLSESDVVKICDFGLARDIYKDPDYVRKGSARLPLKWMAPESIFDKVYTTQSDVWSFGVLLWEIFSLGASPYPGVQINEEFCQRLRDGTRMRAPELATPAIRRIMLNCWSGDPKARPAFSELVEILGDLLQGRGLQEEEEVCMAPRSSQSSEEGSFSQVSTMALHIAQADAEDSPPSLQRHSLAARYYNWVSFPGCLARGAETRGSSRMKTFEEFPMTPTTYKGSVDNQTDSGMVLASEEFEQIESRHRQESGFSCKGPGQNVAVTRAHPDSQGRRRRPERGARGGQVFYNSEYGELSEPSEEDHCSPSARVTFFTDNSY
Sequence of Voltage-dependent N-type calcium channel subunit alpha-1B (Rattus norvegicus) (Q02294 whole entry, looked up): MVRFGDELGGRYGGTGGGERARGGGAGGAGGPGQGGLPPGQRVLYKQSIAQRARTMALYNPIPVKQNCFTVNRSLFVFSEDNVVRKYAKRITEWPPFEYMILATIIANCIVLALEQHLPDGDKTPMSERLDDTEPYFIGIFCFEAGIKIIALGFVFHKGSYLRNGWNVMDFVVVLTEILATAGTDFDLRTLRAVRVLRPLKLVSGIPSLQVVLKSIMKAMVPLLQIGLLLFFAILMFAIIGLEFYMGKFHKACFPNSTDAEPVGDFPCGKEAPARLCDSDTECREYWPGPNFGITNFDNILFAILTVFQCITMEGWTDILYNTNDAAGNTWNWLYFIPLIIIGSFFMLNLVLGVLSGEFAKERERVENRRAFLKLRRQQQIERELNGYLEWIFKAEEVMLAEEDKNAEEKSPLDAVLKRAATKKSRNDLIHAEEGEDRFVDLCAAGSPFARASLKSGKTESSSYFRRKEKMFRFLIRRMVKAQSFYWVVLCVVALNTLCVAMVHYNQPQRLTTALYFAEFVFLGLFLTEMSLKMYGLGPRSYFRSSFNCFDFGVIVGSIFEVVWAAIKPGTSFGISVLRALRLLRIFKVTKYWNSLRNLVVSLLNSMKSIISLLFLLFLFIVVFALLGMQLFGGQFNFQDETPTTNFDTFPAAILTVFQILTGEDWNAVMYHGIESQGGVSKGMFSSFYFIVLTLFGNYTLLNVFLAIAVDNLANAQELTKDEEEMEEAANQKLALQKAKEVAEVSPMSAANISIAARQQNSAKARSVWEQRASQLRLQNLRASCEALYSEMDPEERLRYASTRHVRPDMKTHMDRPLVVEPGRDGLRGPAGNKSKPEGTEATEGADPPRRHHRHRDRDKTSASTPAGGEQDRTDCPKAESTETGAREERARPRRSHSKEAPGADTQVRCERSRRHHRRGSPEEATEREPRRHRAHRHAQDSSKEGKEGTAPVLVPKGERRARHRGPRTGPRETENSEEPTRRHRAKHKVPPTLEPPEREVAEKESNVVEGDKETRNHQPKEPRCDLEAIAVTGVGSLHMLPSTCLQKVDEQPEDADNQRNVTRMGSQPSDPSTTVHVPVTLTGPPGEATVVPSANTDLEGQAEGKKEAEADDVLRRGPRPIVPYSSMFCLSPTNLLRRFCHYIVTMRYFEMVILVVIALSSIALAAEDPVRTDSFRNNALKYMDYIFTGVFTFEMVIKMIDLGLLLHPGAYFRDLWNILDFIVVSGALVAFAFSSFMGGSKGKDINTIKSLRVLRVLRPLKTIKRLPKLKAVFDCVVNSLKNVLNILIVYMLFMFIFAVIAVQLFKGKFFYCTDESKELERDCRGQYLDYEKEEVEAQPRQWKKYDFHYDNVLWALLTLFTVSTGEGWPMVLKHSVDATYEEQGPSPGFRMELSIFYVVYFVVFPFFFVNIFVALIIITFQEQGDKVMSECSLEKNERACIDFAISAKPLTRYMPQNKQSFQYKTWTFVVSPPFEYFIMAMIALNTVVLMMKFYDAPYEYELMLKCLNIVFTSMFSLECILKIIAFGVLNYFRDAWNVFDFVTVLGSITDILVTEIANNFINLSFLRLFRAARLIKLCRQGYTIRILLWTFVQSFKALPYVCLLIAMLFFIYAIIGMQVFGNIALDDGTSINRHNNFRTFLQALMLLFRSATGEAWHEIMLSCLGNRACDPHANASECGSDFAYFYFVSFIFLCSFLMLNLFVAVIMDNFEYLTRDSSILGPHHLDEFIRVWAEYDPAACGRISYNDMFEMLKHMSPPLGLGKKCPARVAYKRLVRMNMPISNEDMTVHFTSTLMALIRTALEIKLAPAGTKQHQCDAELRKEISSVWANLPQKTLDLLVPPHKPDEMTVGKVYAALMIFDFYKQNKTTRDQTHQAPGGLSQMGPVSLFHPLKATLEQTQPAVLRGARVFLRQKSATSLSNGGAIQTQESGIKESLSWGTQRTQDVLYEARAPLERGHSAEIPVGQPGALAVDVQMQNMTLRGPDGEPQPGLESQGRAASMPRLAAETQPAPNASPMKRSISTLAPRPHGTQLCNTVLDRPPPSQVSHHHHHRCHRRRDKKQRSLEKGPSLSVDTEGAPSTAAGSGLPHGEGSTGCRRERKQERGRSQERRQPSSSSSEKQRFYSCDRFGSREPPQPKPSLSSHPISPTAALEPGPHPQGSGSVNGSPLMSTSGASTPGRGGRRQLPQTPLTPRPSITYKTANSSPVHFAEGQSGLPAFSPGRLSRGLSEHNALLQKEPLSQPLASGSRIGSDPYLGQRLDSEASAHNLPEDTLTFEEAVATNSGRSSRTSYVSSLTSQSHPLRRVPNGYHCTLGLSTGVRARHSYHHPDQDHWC
Sequence of Peroxisome proliferator-activated receptor gamma (Homo sapiens) (P37231 whole entry): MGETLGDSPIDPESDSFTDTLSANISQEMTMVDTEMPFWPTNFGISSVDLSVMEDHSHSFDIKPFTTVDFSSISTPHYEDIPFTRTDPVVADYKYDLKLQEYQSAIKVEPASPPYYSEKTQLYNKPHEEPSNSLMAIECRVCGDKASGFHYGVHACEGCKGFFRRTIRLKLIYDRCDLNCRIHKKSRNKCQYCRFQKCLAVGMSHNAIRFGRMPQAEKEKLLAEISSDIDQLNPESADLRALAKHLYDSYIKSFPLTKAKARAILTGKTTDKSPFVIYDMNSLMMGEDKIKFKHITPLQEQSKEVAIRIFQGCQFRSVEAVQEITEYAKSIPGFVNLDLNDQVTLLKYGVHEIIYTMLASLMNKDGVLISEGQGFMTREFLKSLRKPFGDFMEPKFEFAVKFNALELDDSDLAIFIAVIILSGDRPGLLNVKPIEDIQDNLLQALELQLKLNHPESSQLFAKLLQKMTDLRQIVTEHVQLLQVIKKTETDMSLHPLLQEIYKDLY
Sequence of G protein-coupled receptor kinase 5 (Homo sapiens) (P34947 whole entry, looked up): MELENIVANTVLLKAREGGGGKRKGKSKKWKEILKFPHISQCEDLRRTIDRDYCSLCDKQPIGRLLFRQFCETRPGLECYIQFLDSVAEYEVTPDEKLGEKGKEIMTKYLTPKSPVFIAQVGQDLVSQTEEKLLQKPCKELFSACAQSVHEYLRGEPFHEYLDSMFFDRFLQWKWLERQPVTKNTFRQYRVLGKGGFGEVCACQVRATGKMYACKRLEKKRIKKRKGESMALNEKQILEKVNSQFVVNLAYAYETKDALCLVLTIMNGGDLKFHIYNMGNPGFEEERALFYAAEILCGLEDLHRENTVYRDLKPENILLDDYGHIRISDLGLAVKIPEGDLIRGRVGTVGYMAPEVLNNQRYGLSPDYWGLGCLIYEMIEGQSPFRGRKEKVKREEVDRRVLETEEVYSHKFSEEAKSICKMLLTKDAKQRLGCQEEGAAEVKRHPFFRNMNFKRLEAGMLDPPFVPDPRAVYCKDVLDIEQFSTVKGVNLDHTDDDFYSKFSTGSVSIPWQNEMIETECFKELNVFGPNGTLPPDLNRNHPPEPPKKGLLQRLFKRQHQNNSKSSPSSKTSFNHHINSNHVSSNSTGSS

`CN(C)C(=O)Cn1cc(-c2nc(C3(c4ccc(-c5cnc(N)nc5)cc4)CC3)no2)cn1` [BI 0153] was tested. Which residual activity [1] did it give?
Its residual activity is 100%.

For `CN(C)C(=O)Cn1cc(-c2nc([C@@](C)(c3ccc(-c4cnc(N)nc4)cc3)C3CC3)no2)cn1` [BI 665915], which residual activity [2] is on record?
Its residual activity is 96%.

And the residual activity [3]?
Its residual activity is 98%.

What about the residual activity [4] of the same molecule?
Its residual activity is 102%.

And the residual activity [5]?
The residual activity was 96%.

And the residual activity [6]?
The residual activity was 100%.

And the residual activity [7]?
Its residual activity is 91%.

What about the residual activity [8] of the same molecule?
Its residual activity is 97.5%.

What about the residual activity [9] of the same molecule?
Its residual activity is 93%.

And the residual activity [10]?
Its residual activity is 79%.

What about the residual activity [11] of the same molecule?
Its residual activity is 82%.

What about the residual activity [12] of the same molecule?
The residual activity was 99.5%.

And the residual activity [13]?
Its residual activity is 91%.

And the residual activity [14]?
Its residual activity is 36%.

And the residual activity [15]?
The residual activity was 69.5%.

What about the residual activity [16] of the same molecule?
Its residual activity is 95%.

And the residual activity [17]?
The residual activity was 96%.

What about the residual activity [18] of the same molecule?
The residual activity was 129%.

And the residual activity [19]?
Its residual activity is 97%.

Reference: ChEMBL document CHEMBL4507276 (2021)
